According to article PMC12278645, “Design, synthesis, and antitumor activity of novel thioheterocyclic nucleoside derivatives by suppressing the c-MYC pathway” (Acta Pharmaceutica Sinica. B, 2025):

Experiments:
HCT116 cells [1] = assay: Intracellular ROS measurement (DCFH-DA); assay type: cell-based, human; conditions: 48 h
Description: HCT116 cells were seeded in 96-well plates overnight and then the cells were treated with defined concentrations of compound 33a or 36b. In addition, cells were pretreated with 0.8 mmol/L NAC for 1 h. After 48 h, the cells were washed with PBS. DCFH-DA (100 μL, 100 μmol/L) was added to each well and incubated for 30 min at 37 °C, and the cells were washed twice with PBS. Finally, the cells were cultivated in a 100 μL culture medium and the fluorescence signals were detected with an EnVision® NexusTM Multi-Mode Microplate Reader or flow cytometry (Becton, Dickinson Company).

HCT116 cells [2] = assay: EdU assay; assay type: cell-based, human; conditions: 48 h
Description: HCT116 cells were seeded in 96-well plates (4 × 10^4 cells/well) overnight and then the cells were treated with various concentrations of compound 33a or 36b. After 48 h, the experiment operation process was performed according to the manufacturer's instructions. Images were obtained with a Leica DMIL fluorescence microscope (Leica Microsystems, Wetzlar, Germany).

HeLa cells = assay: CCK-8 anti-proliferation assay, HeLa; assay type: cell-based, human; conditions: Homo sapiens, HeLa, 48 h, CCK-8, 48 h, mean ± SD, three independent experiments
Description: Tumor cell anti-proliferation activities were determined by cell counting kit-8 (CCK-8) assay.
(§1) MCF-7, A375, and HeLa cells were cultured in DMEM, HCT116 cells were cultured in McCoy's 5A medium, and DU145 and CT26 were cultured in RPMI 1640 with 10% FBS, 1% penicillin-streptomycin solution (10,000 U/mL penicillin and 10,000 μg/mL streptomycin) at 37 °C under 5% CO2. The cells were seeded in 96-well plates (4 × 10^3 cells/well) overnight and then treated with various concentrations (1–50 μmol/L) of the compound. After 48 h, the cell viability was measured by CCK-8 assay. The absorbance of each well was measured using a microplate reader (Multiskan FC, Thermo Fisher Scientific, Massachusetts, USA) at 450 nm wavelength. Assays were performed in triplicate. Compound concentrations that inhibited cell growth by 50% (IC50) were calculated from the dose–response curves of each cell line. Data are mean ± SD values from three independent experiments.

HCT116 cells [3] = assay: Cell apoptosis (Annexin V-FITC/PI, flow cytometry); assay type: cell-based, human; conditions: 48 h
Description: HCT116 cells were seeded in 6-well plates (4 × 10^5 cells/well). The following day, defined concentrations of compound 33a or 36b were added to the wells for 48 h at 37 °C with 5% CO2. The cells were collected and stained with Annexin V-FITC and PI for 15 min at room temperature. Apoptotic cells were analyzed with flow cytometry (BD Bioscience).

c-MYC = c-MYC (Homo sapiens, UniProt P01106); assay: Cellular thermal shift assay (CETSA); assay type: binding; design: HCT116 cells were lysed with mammalian protein extraction reagent (M-PER); endogenous in cells; host or cells: HCT116; conditions: 40-70 °C
Sequence of c-MYC (P01106 whole entry): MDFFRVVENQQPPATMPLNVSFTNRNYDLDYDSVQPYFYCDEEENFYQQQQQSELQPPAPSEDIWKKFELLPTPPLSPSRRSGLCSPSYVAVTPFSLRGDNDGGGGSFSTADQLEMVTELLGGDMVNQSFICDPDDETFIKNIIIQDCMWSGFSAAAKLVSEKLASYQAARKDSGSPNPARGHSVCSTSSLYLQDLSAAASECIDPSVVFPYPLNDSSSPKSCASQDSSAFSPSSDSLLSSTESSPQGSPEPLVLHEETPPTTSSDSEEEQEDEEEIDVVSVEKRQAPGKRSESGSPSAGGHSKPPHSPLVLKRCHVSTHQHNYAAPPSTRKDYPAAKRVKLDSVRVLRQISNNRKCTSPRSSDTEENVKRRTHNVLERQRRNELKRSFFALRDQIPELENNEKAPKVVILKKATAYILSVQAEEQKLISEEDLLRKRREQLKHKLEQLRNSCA
Description: In short, the lysates were incubated with 33a or 36b or DMSO for 30 min. The […] were divided equally and individually heated at different temperatures (40–70 °C) for 3 min and then cooled on ice. After freeze-thawing twice with liquid nitrogen, the supernatant was centrifuged, collected, and boiled in a loading buffer. c-MYC protein was analyzed by Western blot.

[4] = system: MCF-7 (human breast cancer); assay: CCK-8 anti-proliferation assay, MCF-7; assay type: cell-based; conditions: Homo sapiens, MCF7; CCK-8, 48 h, mean ± SD
Description: (§2) To evaluate their spectrum of anti-proliferative activity, further CCK-8 assays were carried out with the selected compounds (5a/5b, 8a/8b, 33a/33b, and 36a/36b) on MCF-7 (human breast cancer), A375 (human malignant melanoma), DU145 (human prostate cancer), and CT26 (mouse colon cancer) cell lines. The selected compounds had moderate to potent antitumor activity on the four cell lines, indicating their broad spectrum of antitumor activity (Table 5).
as §1

HCT116 cells [5] = assay: Transwell invasion assay; assay type: cell-based, human; conditions: 24 h
Description: A transwell chamber (24-well) (Corning, New York, USA) was coated with Matrigel (BD Biosciences, New Jersey, USA), and 1 × 10^5 cells per well were seeded in the upper chamber in serum-free medium and treated with defined doses of compound 33a or 36b. The complete medium was placed in the lower chamber. After 24 h, the cells penetrating through the pores were stained with 0.1% crystal violet solution and observed with a Leica DMIL fluorescence microscope (Leica Microsystems).

HCT116 cells [6] = assay: Autophagy (Western blot of P62, LC3, Beclin1; TEM; MDC staining); assay type: cell-based, human; conditions: 48 h
Description: Whole protein was extracted and separated by polyacrylamide gel electrophoresis (SDS-PAGE) and transferred onto nitrocellulose membranes. Membranes were blotted with CDK1, Cyclin B1, Caspase-3, BAX, BCL-2, PARP-1, γ-H2AX, P53, ATF4, CHOP, PERK, ATP6, LC3, Beclin1, P62, β-Catenin, c-MYC, MAX, UPP1, GAPDH, β-Actin, and β-Tubulin primary antibodies. Protein band analyses were performed with ImageJ software and protein expression levels were presented as a percentage difference compared to control.

[7] = system: A375 (human malignant melanoma); assay: CCK-8 anti-proliferation assay, A375; assay type: cell-based; conditions: Homo sapiens, A-375; CCK-8, 48 h, mean ± SD
Description: as §2, §1

HCT116 cells [8] = assay: Cell cycle assay (PI, flow cytometry); assay type: cell-based, human; conditions: 48 h
Description: Cells were seeded in 6-well plates (5 × 10^5 cells/well). The following day, defined concentrations of compound 33a or 36b were added to the wells for 48 h at 37 °C with 5% CO2. The cells were collected and fixed in ice-cold 70% alcohol overnight. Then the cells were stained in propidium iodide (PI) dye for 15 min in the dark and the cell DNA contents were analyzed via flow cytometry (Becton, Dickinson Company, New Jersey, USA).

With CCOC(=O)[C@]1(n2cnc3c(N4CCCCC4)nc(F)nc32)CSC[C@H]1O (racemic) [33a] the “ROS levels” value (HCT116 cells [1]) was “significantly increased ROS levels in a dose-dependent manner”, the EdU-positive cells (HCT116 cells [2]) was “significantly fewer EdU-positive cells than in the control group” and the IC50 (HeLa cells) was 8.73 ± 1.02 µM. For the same compound, the “apoptosis” value (HCT116 cells [3]) was “induced apoptosis in a dose-dependent manner”, the “thermal stability of c-MYC” value (c-MYC) was “increase the thermal stability of c-MYC in HCT116 cells from 40 to 70 °C” and the IC50 [4] was 8.45 ± 1.03 µM. For the same compound, the invasion (HCT116 cells [5]) was “distinctly reduced the number of HCT116 cells passing through the matrix membrane”, the “autophagy” value (HCT116 cells [6]) was “could inhibit autophagy in HCT116” and the IC50 [7] was 2340 ± 120 nM. For the same compound, the “G2/M cells” value (HCT116 cells [8]) was “increased the percentage of G2/M cells in a dose-dependent manner”.
CCCSc1nc(F)nc2c1ncn2[C@@]1(C(=O)OCC)CSC[C@@H]1O (relative stereo) [36b] was tested, and the “ROS levels” value (HCT116 cells [1]) was “significantly increased ROS levels in a dose-dependent manner”, the EdU-positive cells (HCT116 cells [2]) was “significantly fewer EdU-positive cells than in the control group” and the IC50 (HeLa cells) was 6.35 ± 1.08 µM. For the same compound, the “apoptosis” value (HCT116 cells [3]) was “induced apoptosis in a dose-dependent manner”, the “thermal stability of c-MYC” value (c-MYC) was “increase the thermal stability of c-MYC in HCT116 cells from 40 to 70 °C” and the IC50 [4] was 14.1 ± 1.24 µM. The invasion (HCT116 cells [5]) was “distinctly reduced the number of HCT116 cells passing through the matrix membrane”, the “autophagy” value (HCT116 cells [6]) was “could up-regulate the protein levels of P62 but showed no obvious effect on LC3-II and Beclin1” and the IC50 [7] was 1140 ± 170 nM. For the same compound, the “G2/M cells” value (HCT116 cells [8]) was “increased the percentage of G2/M cells in a dose-dependent manner”.
